How the values were obtained:
[1] = target: Serine/threonine-protein kinase 24 (Homo sapiens) (UniProt Q9Y6E0); settings: Compound concentration 1000.0 nM
[2] = target: Mitogen-activated protein kinase kinase kinase kinase 1 (Homo sapiens) (UniProt Q92918); settings: Compound concentration 1000.0 nM
[3] = target: Cannabinoid receptor 2 (Homo sapiens) (UniProt P34972); assay: CB2 (h) Eurofins-Cerep binding assay; design: ligand concentration 0.8 nM; settings: filed as agonist, Compound concentration 10.0 uM
[4] = target: Death-associated protein kinase 1 (Homo sapiens) (UniProt P53355); settings: Compound concentration 1000.0 nM
[5] = target: Adenosine receptor A2b (Homo sapiens) (UniProt P29275); assay: A2B (h) Eurofins-Cerep binding assay; design: ligand concentration 5 nM; settings: filed as antagonist, Compound concentration 10.0 uM
[6] = target: Non-receptor tyrosine-protein kinase TNK1 (Homo sapiens) (UniProt Q13470); settings: Compound concentration 1000.0 nM
[7] = target: Casein kinase I isoform alpha (Homo sapiens) (UniProt P48729); settings: Compound concentration 1000.0 nM
[8] = target: Vascular endothelial growth factor receptor 1 (Homo sapiens) (UniProt P17948); settings: Compound concentration 1000.0 nM
[9] = target: Serine/threonine-protein kinase Nek11 (Homo sapiens) (UniProt Q8NG66); settings: Compound concentration 1000.0 nM
[10] = target: Serine/threonine-protein kinase 26 (Homo sapiens) (UniProt Q9P289); settings: Compound concentration 1000.0 nM
[11] = target: G protein-coupled receptor kinase 3 (Homo sapiens) (UniProt P35626); settings: Compound concentration 1000.0 nM
[12] = target: Calcium/calmodulin-dependent protein kinase type IV (Homo sapiens) (UniProt Q16566); settings: Compound concentration 1000.0 nM
[13] = target: Ephrin type-B receptor 1 (Homo sapiens) (UniProt P54762); settings: Compound concentration 1000.0 nM
[14] = target: Testis-specific serine/threonine-protein kinase 3 (Homo sapiens) (UniProt Q96PN8); settings: Compound concentration 1000.0 nM
[15] = target: D(1A) dopamine receptor (Homo sapiens) (UniProt P21728); assay: D1 (h) Eurofins-Cerep binding assay; design: ligand concentration 0.3 nM; settings: filed as antagonist, Compound concentration 10.0 uM
[16] = target: Inhibitor of nuclear factor kappa-B kinase subunit epsilon (Homo sapiens) (UniProt Q14164); settings: Compound concentration 1000.0 nM
[17] = target: Dual specificity mitogen-activated protein kinase kinase 5 (Homo sapiens) (UniProt Q13163); settings: Compound concentration 1000.0 nM
[18] = target: T1, 5-hydroxytryptamine receptor 3A (Homo sapiens) (UniProt P46098); assay: 5-HT3 (h) Eurofins-Cerep binding assay; design: ligand concentration 0.5 nM; settings: filed as antagonist, Compound concentration 10.0 uM
T1 sequence (whole entry): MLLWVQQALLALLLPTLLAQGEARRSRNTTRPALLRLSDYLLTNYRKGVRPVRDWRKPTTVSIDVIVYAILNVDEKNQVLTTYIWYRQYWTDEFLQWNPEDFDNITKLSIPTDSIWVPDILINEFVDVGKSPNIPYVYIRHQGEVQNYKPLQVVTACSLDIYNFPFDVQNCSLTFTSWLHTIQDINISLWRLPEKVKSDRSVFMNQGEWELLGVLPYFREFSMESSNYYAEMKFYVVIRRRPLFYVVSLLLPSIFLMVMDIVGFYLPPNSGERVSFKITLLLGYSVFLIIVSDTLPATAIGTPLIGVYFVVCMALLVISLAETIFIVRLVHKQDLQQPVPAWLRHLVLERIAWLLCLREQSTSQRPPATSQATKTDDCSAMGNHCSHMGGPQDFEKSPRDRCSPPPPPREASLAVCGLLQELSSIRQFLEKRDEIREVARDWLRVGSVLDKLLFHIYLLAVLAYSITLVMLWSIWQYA

[19] = target: Tyrosine-protein kinase HCK (Homo sapiens) (UniProt P08631); settings: Compound concentration 1000.0 nM
[20] = test system: Tyrosine-protein kinase ABL1 (Homo sapiens), P00519 [E255K]; settings: Compound concentration 1000.0 nM
[21] = test system: Proto-oncogene tyrosine-protein kinase receptor Ret (Homo sapiens), P07949 [V804M]; settings: Compound concentration 1000.0 nM
[22] = target: Receptor tyrosine-protein kinase erbB-3 (Homo sapiens) (UniProt P21860); settings: Compound concentration 1000.0 nM
[23] = target: BDNF/NT-3 growth factors receptor (Homo sapiens) (UniProt Q16620); settings: Compound concentration 1000.0 nM
[24] = target: Serine/threonine-protein kinase SBK1 (Homo sapiens) (UniProt Q52WX2); settings: Compound concentration 1000.0 nM
[25] = target: Dual specificity testis-specific protein kinase 1 (Homo sapiens) (UniProt Q15569); settings: Compound concentration 1000.0 nM
[26] = target: Mitogen-activated protein kinase kinase kinase 6 (Homo sapiens) (UniProt O95382); settings: Compound concentration 1000.0 nM
[27] = target: Cyclin-dependent kinase 15 (Homo sapiens) (UniProt Q96Q40); settings: Compound concentration 1000.0 nM
Rattus norvegicus = organism: Rattus norvegicus; settings: Compound concentration 10.0 uM
[28] = test system: ALK tyrosine kinase receptor (Homo sapiens), Q9UM73 [L1196M]; settings: Compound concentration 1000.0 nM
[29] = target: Interferon-induced, double-stranded RNA-activated protein kinase (Homo sapiens) (UniProt P19525); settings: Compound concentration 1000.0 nM
[30] = target: Homeodomain-interacting protein kinase 4 (Homo sapiens) (UniProt Q8NE63); settings: Compound concentration 1000.0 nM
[31] = target: Calcium/calmodulin-dependent protein kinase type II subunit beta (Homo sapiens) (UniProt Q13554); settings: Compound concentration 1000.0 nM
[32] = target: P2X receptor (Rattus norvegicus) (UniProt P51579+P49653+P51578+Q64663+P47824+P51577+P49654); assay: P2X Eurofins-Cerep binding assay; assay type: protein assay; design: ligand concentration 3 nM; settings: filed as agonist, Compound concentration 10.0 uM
[33] = target: Cyclin-dependent kinase 4 (Homo sapiens) (UniProt P11802); settings: Compound concentration 1000.0 nM
[34] = test system: Proto-oncogene tyrosine-protein kinase receptor Ret (Homo sapiens), P07949 [M918T]; settings: Compound concentration 1000.0 nM
[35] = target: Serine/threonine-protein kinase STK11 (Homo sapiens) (UniProt Q15831); settings: Compound concentration 1000.0 nM
[36] = target: Serine/threonine-protein kinase Nek2 (Homo sapiens) (UniProt P51955); settings: Compound concentration 1000.0 nM

Sequence of Casein kinase I isoform alpha (Homo sapiens) (P48729 2-337 limits assumed): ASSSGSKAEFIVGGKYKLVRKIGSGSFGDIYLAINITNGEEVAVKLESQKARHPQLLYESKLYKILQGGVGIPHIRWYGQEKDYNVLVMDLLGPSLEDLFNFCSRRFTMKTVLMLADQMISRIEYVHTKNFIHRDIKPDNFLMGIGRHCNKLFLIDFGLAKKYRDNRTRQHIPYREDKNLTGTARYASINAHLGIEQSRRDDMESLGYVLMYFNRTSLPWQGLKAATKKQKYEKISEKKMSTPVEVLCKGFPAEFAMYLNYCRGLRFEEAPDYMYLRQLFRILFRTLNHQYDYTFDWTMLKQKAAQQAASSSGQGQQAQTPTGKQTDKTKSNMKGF
Sequence of Cyclin-dependent kinase 4 (Homo sapiens) (P11802 whole entry): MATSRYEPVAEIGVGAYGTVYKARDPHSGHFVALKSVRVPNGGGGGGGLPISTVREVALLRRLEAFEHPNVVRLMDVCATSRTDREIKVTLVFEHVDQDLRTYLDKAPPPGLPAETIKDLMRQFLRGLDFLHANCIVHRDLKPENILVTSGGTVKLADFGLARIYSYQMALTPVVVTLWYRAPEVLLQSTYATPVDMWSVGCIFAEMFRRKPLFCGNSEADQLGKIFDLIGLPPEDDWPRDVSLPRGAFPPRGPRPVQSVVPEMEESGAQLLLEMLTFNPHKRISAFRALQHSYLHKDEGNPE
Sequence of Cyclin-dependent kinase 15 (Homo sapiens) (Q96Q40 whole entry): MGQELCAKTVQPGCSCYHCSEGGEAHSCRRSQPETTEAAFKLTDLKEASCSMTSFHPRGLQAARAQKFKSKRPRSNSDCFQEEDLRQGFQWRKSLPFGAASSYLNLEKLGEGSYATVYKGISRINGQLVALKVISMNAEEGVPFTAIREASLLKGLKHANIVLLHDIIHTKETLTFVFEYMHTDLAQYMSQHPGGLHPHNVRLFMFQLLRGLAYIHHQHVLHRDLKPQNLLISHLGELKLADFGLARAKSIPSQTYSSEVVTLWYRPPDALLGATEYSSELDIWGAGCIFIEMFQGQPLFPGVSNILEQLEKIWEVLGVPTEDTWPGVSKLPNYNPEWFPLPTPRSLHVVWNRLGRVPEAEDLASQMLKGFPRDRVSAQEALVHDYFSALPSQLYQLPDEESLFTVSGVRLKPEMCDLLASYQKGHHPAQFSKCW
Sequence of Ephrin type-B receptor 1 (Homo sapiens) (P54762 whole entry): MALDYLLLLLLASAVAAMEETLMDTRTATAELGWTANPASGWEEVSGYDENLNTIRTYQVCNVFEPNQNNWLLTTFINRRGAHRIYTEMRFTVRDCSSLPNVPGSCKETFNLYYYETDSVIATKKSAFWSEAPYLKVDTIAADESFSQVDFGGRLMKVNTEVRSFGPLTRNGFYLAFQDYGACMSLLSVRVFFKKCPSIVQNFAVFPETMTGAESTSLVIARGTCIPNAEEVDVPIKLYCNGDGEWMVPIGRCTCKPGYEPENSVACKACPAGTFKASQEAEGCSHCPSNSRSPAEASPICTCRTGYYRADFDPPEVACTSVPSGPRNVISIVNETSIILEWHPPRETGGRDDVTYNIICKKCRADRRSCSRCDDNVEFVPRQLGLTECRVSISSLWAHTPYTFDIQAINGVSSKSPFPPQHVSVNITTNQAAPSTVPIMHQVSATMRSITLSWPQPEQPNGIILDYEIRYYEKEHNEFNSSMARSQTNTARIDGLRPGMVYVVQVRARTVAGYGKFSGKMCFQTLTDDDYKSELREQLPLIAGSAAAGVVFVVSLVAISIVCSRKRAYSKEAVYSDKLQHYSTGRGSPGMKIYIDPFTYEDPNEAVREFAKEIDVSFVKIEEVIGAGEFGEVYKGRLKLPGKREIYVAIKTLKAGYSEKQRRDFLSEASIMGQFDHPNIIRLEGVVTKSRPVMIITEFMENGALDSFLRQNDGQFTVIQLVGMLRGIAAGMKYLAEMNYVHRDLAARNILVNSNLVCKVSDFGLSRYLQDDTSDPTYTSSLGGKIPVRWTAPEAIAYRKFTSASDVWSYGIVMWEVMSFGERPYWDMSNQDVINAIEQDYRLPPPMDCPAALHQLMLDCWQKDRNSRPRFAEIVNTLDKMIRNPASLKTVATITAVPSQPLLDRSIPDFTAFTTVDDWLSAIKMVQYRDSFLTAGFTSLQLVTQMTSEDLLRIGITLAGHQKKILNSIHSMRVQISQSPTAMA
Sequence of Serine/threonine-protein kinase SBK1 (Homo sapiens) (Q52WX2 whole entry): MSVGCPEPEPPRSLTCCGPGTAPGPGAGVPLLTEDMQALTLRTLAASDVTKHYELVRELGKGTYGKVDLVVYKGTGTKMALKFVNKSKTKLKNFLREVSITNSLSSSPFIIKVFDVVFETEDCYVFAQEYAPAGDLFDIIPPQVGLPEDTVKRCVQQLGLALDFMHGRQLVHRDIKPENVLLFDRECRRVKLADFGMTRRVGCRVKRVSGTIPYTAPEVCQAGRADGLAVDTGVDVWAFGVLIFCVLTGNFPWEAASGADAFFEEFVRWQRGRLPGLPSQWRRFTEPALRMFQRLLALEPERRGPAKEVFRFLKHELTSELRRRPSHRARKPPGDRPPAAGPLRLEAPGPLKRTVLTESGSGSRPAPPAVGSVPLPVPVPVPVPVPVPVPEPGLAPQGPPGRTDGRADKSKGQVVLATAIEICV
Sequence of Calcium/calmodulin-dependent protein kinase type IV (Homo sapiens) (Q16566 whole entry): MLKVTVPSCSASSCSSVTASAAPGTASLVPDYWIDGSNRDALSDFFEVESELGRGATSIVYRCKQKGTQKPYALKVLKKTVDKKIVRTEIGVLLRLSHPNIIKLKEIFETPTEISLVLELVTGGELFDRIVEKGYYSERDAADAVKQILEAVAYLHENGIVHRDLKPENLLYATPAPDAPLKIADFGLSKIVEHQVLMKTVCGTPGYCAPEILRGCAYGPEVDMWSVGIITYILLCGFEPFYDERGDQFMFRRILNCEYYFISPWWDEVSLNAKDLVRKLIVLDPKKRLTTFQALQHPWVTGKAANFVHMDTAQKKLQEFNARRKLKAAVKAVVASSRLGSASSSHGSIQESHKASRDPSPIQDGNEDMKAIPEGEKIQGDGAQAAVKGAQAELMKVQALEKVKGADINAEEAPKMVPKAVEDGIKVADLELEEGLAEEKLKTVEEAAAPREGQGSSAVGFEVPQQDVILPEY
Sequence of G protein-coupled receptor kinase 3 (Homo sapiens) (P35626 whole entry): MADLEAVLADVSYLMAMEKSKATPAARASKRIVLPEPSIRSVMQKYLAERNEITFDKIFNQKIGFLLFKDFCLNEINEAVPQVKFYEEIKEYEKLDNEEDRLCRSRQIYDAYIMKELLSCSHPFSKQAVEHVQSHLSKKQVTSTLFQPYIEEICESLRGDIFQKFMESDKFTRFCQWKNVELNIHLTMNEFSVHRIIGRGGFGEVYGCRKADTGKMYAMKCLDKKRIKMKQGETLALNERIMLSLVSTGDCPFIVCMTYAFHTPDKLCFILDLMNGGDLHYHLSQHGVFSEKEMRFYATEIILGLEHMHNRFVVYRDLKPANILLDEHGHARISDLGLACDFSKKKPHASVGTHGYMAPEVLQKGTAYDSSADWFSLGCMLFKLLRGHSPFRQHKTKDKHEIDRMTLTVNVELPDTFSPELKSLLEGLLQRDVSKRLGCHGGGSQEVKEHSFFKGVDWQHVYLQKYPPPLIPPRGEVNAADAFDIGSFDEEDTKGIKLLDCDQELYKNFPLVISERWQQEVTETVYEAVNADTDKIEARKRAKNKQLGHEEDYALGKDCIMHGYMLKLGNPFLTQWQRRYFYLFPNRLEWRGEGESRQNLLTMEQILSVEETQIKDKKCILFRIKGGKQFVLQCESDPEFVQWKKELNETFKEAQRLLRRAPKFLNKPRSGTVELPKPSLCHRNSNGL
Sequence of Homeodomain-interacting protein kinase 4 (Homo sapiens) (Q8NE63 whole entry): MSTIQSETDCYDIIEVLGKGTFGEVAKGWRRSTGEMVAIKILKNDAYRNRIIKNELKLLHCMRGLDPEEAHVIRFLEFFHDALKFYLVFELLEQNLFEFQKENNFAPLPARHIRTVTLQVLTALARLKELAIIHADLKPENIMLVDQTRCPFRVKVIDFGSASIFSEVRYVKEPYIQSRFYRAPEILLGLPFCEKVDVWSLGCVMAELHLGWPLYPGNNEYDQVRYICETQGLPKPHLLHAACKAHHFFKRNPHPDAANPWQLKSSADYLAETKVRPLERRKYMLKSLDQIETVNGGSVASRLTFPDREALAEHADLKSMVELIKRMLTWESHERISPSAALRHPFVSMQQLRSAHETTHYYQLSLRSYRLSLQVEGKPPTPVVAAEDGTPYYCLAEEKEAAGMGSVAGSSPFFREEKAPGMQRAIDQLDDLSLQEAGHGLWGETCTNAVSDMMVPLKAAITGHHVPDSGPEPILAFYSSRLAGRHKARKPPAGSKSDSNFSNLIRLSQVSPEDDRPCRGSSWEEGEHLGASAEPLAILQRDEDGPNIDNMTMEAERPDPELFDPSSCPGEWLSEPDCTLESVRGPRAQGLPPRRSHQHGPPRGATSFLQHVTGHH
Sequence of Serine/threonine-protein kinase 26 (Homo sapiens) (Q9P289 2-416 limits assumed): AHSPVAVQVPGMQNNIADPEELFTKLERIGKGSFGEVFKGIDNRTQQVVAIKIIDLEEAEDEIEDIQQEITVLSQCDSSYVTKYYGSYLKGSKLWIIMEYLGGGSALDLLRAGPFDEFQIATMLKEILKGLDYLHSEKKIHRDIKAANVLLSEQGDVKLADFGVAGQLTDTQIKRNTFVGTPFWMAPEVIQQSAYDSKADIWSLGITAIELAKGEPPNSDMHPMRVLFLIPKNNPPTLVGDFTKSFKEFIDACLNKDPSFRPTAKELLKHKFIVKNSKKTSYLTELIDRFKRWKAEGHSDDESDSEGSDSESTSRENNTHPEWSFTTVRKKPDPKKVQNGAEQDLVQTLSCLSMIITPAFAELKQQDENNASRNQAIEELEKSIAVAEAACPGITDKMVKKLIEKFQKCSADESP
Sequence of Testis-specific serine/threonine-protein kinase 3 (Homo sapiens) (Q96PN8 whole entry): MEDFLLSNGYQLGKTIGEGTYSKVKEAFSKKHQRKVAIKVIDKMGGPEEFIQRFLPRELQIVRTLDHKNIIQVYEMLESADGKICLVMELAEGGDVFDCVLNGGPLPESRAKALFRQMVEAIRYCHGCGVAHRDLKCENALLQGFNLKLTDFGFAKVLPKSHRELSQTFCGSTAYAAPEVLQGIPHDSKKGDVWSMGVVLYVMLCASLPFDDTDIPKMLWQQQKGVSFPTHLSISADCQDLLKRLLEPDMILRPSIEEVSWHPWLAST

Row | SMILES | residual activity [1] | residual activity [2] | % Inhibition of Control Specific Binding (Mean n=2) [3] | residual activity [4] | % Inhibition of Control Specific Binding (Mean n=2) [5] | residual activity [6] | residual activity [7] | residual activity [8] | residual activity [9] | residual activity [10] | residual activity [11] | residual activity [12] | residual activity [13] | residual activity [14] | % Inhibition of Control Specific Binding (Mean n=2) [15] | residual activity [16] | residual activity [17] | % Inhibition of Control Specific Binding (Mean n=2) [18] | residual activity [19] | residual activity [20] | also measured
1 | COc1ccc2c(c1)O[C@H](c1ccc(OC)c(OC)c1)C[C@@H]2NC(=O)C1(c2ccc3c(c2)OC(F)(F)O3)CC1 [A-1596584] | 92% | 98% | 73.7% | 100% | 3.6% | 97% | 82% | 100% | 88% | 84% | 100% | 100% | 100% | 100% | 7.4% | 96% | 76% | 0.8% | 100% | 90% | residual activity [21]: 100%; residual activity [22]: 92%; residual activity [23]: 100%; residual activity [24]: 90%; residual activity [25]: 98%; residual activity [26]: 81%; residual activity [27]: 100%; inhibition (Rattus norvegicus): 66.6%; residual activity [28]: 100%; residual activity [29]: 100%; residual activity [30]: 91%; residual activity [31]: 88%; % Inhibition of Control Specific Binding (Mean n=2) [32]: 4.8%; residual activity [33]: 96%; residual activity [34]: 99%; residual activity [35]: 100%; residual activity [36]: 100%
2 | COc1ccc2c(c1)O[C@@H](c1ccc(OC)c(OC)c1)C[C@H]2NC(=O)C1(c2ccc3c(c2)OC(F)(F)O3)CC1 [A-1596586] | 96% | 90% | 30.2% | 99% | 3.7% | 100% | 78% | 100% | 83% | 75% | 75% | 89% | 87% | 57% | 14% | 70% | 67% | -3% | 88% | 80% | residual activity [21]: 95%; residual activity [22]: 86%; residual activity [23]: 91%; residual activity [24]: 94%; residual activity [25]: 96%; residual activity [26]: 81%; residual activity [27]: 100%; inhibition (Rattus norvegicus): 90.5%; residual activity [28]: 90%; residual activity [29]: 100%; residual activity [30]: 51%; residual activity [31]: 69%; % Inhibition of Control Specific Binding (Mean n=2) [32]: -21.7%; residual activity [33]: 91%; residual activity [34]: 90%; residual activity [35]: 65%; residual activity [36]: 97%
